One data set has as its target T1, LAG3/FGL1 (Homo sapiens, UniProt P18627).
T1 sequence (P18627 23-450 limits assumed): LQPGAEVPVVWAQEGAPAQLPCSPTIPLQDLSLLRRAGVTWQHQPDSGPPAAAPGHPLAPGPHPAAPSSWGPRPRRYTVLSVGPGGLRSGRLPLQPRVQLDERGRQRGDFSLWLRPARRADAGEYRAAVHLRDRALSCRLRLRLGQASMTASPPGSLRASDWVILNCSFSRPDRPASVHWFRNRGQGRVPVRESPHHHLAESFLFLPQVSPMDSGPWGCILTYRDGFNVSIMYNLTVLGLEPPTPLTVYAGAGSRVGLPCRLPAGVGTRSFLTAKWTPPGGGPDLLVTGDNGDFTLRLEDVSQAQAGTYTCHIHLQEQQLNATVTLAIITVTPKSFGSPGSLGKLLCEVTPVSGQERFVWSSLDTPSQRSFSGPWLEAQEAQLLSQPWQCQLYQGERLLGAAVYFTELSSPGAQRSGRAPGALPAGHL
As to the kind of experiment: LAG3/FGL1 binding assay (HTRF, Cisbio kit). Particulars: for inhibition at 50 µM: read-out: inhibition rate against LAG3/FGL1. On the technique in general: In TR-FRET formats the signal depends on donor and acceptor labels being close together.

In another data set the target is T2, LAG3/MHC II (Homo sapiens, UniProt P18627).
T2 sequence (P18627 23-450 limits assumed): T1 sequence (P18627 23-450 limits assumed)
The experiment in a line: LAG3/MHC II binding assay (HTRF, Cisbio kit). Conditions: for inhibition at 50 µM: read-out: inhibition rate against LAG3/MHC II.

Data set [1] can be described thus: Cytotoxicity by the CCK8 assay. It is filed as cell-based. Conditions: human, AGS cells, read-out: inhibition rate, cytotoxicity against AGS cells. As to the method:
With adriamycin as the positive control, compounds 1, 4–9 were assessed for cytotoxicity against AGS, U251, and MDA-MB-231 by the CCK8 assay (Tables 3 and 4).
Background: Tetrazolium assays rely on reduction of a dye to a coloured formazan, in cell work by metabolically active cells.

Molecules are shown by their SMILES.

What is called IC50 is the midpoint of a concentration-inhibition curve. A lower IC50 goes with greater potency in that assay.

Description for LAG3/FGL1: (§1) Using the following fluorescence intensity (F) measurements at 665 nm, such as the signals of positive control (Fp), blank control (Fb), and experimental groups (Fe), the inhibition rate was calculated at each of the compound concentration levels. The inhibitory activity of compound against the interaction of LAG3 with MHC II was evaluated based on the formula as follow: Inhibition rate = (Fp − Fe)/(Fp − Fb) × 100%. IC50 values were calculated by linear regression of a dose-dependent inhibition rate curve.
The tested principles and methods were similar to those of LAG3/MHC II. Using LAG3/FGL1 binding assay kit from Cisbio, the inhibition activity of tested compounds on the binding between LAG3 and MHC II was evaluated. […] Moreover, the compositions of tested groups, positive control, negative control, blank control were analogical with those of LAG3/MHC II kit. The experimental operations and statistical analysis were also identical with above-mentioned LAG3/MHC II kit.
Description for LAG3/MHC II: Utilizing HTRF (Homogeneous Time-resolved Fluorescence) technology [34, 35], the inhibition activity of tested compounds interfering in the interaction between MHC II and LAG3 proteins was evaluated. The activity was measured using LAG3/MHC II binding assay kit commercially available from Cisbio. […] 2 μL tested solutions, 4 μL Tag1-LAG3 protein, and 4 μL Tag2-MHC II protein were added in sterile 96-well dishes. After incubation for 15 min in room temperature, 5 μL anti-Tag1-Tb^3+ and 5 μL anti-Tag2-XL665 (or 10 μL of pre-mixed anti-tag detection reagents) were added into each well. The concentration of DMSO in each well was kept below 0.5% and the final volume in each well was 20 μL in the moment. Then the 96-well dishes were kept incubating for 1 h to overnight at room temperature. Subsequently, remove the plate sealer and read specific emission signal at 665 nm on an HTRF compatible reader. […] The negative control consisted of 4 μL Tag2-MHC II protein, 5 μL anti-Tag1-Tb^3+ and 5 μL anti-Tag2-XL665, as well as 6 μL diluent. In blank control, 5 μL anti-Tag1-Tb^3+, 10 μL diluent, and 5 μL detection buffer were existed.
as §1

`CC(=O)OC1C=CC(C)C(=O)C(C)CC=CC2C=C(C)C(C)C3C(Cc4ccccc4)NC(=O)C213` (stereo not shown) [Compound 1, xylariasin A]: on LAG3/FGL1, the IC50 stood at 11.8 µM and the inhibition at 50 µM came out at 83.9%. In addition, at LAG3/MHC II, the IC50 is 4.74 µM and the inhibition at 50 µM was determined as 82.4%.

Take `CC(=O)OC1C=CC(C)(O)C(=O)C(C)CC=CC2C=C(C)C(C)C3C(Cc4ccccc4)NC(=O)C213` (stereo not shown) [Compound 4, zygosporin G]: the figures for the inhibition at 50 µM on LAG3/FGL1 and at LAG3/MHC II were 24.9% and 55.7%, respectively.

For `CC(=O)OC1C=CC(C)(O)C(=O)C(C)CC=CC2C=C(CO)C(C)C3C(Cc4ccccc4)NC(=O)C213` (stereo not shown) [Compound 5, 12-hydroxyl zygosporin G], on LAG3/FGL1, the inhibition at 50 µM was found to be 79.1%. On LAG3/MHC II, the IC50 was found to be 3.18 µM and the inhibition at 50 µM worked out at 85.3%.

For the molecule `C=C1[C@@H](C)[C@H]2[C@H](Cc3ccccc3)NC(=O)[C@]23[C@H](OC(C)=O)/C=C/[C@@](C)(O)C(=O)[C@@H](C)C/C=C/[C@H]3[C@@H]1O` [Compound 6, cytochalasin D], the inhibition at 5 µM in data set [1] was found to be 94%. Besides, at LAG3/FGL1, the inhibition at 50 µM was found to be 2.66%.

In the case of `C=C1C(C)C2C(Cc3ccccc3)NC(=O)C23C(OC(C)=O)C=CC(C)C(=O)C(C)CC=CC3C1O` (stereo not shown) [Compound 7, zygosporin E], on LAG3/FGL1, the IC50 amounted to 4.39 µM and the inhibition at 50 µM is 92.7%. Moreover, on LAG3/MHC II, the half-inhibitory concentration (IC50) turned out to be 2.37 µM and the inhibition at 50 µM was determined as 82.7%.

Regarding `CC(=O)OC1C=CC(C)(O)C(=O)C(C)CC=CC2C(=O)C(C)C(C)C3C(Cc4ccccc4)NC(=O)C123` (stereo not shown) [Compound 8], at LAG3/FGL1, the IC50 was determined as 7.45 µM and the inhibition at 50 µM came to 92.5%. On LAG3/MHC II, the IC50 turned out to be 2.58 µM and the inhibition at 50 µM was 78.9%.

For `CC(=O)OC1C=CC(C)(O)C(=O)C(C)CC=CC2C(O)C(C)=C(C)C3C(Cc4ccccc4)NC(=O)C123` (stereo not shown) [Compound 9, cytochalasin C], in data set [1], the inhibition at 5 µM amounted to 64%. Moreover, the inhibition at 50 µM on LAG3/FGL1 stood at 58.4%; at LAG3/MHC II, 77.4%.

The values above are taken from publication PMC7933320, “Cytochalasins from Xylaria sp. CFL5, an Endophytic Fungus of Cephalotaxus fortunei” (Natural Products and Bioprospecting, 2020).
